PMC12892976, “Alkylation-based optimization of antifungal FPPS inhibitors yields a potent, broad-spectrum lipophilic zoledronate derivative” (mBio, 2025)
Converted amounts (≈) assume the structure as drawn.

What was measured:
Format in all cases: cell-based
Saccharomyces cerevisiae [1] = assay: MIC/MFC broth microdilution (CLSI); conditions: Saccharomyces cerevisiae S288c
Method: (§1) Antifungal susceptibility was determined by broth microdilution according to the CLSI guidelines described in M27-Ed4 ([16]). […] MFC was determined by back-plating drug-treated cultures from MIC broths onto SDA plates. The MFC was defined as the lowest concentration from which no colonies could be cultured.

Candida albicans [2] = assay: MIC/MFC broth microdilution (CLSI); conditions: Candida albicans SC5314
Method: as §1

[3] = system: Cryptococcus deuterogattii; assay: checkerboard drug interaction (FICI, MICc); conditions: for INH FD (MIC-MICc fold decrease): fold decrease of inhibitor MIC;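 as to all read-outs here: simplified diagonal checkerboard screen pairing antifungal drugs with FPPS inhibitors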
Method: (§2) Drug interactions between antifungals and FPPS inhibitors were investigated using a simplified checkerboard diagonal screening method ([45]). […] FICIs were determined according to the Loewe additivity model ([17]).

Cryptococcus neoformans = assay: checkerboard drug interaction (FICI, MICc); conditions: for INH FD (MIC-MICc fold decrease): fold decrease of inhibitor MIC;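 as to all read-outs here: antifungal plus FPPS inhibitor pairs tested against Cryptococcus neoformans by simplified diagonal checkerboard screening, FICI computed under the Loewe additivity model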
Method: as §2

Candida auris = assay: checkerboard drug interaction (FICI, MICc);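 also: simplified diagonal checkerboard screen pairing antifungals with FPPS inhibitors, with FICI computed under the Loewe additivity model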
Method: as §2

Saccharomyces cerevisiae [4] = assay: checkerboard drug interaction (FICI, MICc); design: INH MICc / INH MICc (ITR:INH) / INH MICc (KET:INH) / INH MICc (FLC:INH): unit not given beside the values; conditions: for INH FD (MIC-MICc fold decrease): fold decrease of inhibitor MIC;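 as to all read-outs here: simplified diagonal checkerboard screen pairing antifungals with FPPS inhibitors, FICI calculated under the Loewe additivity model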
Candida glabrata = assay: checkerboard drug interaction (FICI, MICc); conditions: for INH FD (MIC-MICc fold decrease): fold decrease of inhibitor MIC;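 as to all read-outs here: simplified diagonal checkerboard screen pairing antifungals with FPPS inhibitors, FICI calculated under the Loewe additivity model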
Method: as §2

Candida albicans [5] = assay: checkerboard drug interaction (FICI, MICc); conditions: for INH FD (MIC-MICc fold decrease): fold decrease of inhibitor MIC;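 as to all read-outs here: antifungal plus FPPS inhibitor combinations on Candida albicans tested by a simplified diagonal checkerboard screen, with FICI calculated under the Loewe additivity model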
Method: as §2

[6] = C. deuterogattii, FLC:INH combination
[7] = C. deuterogattii, ITR:INH combination
[8] = C. deuterogattii, KET:INH combination
[9] = C. neoformans, FLC:INH combination
[10] = C. neoformans, ITR:INH combination
[11] = C. neoformans, KET:INH combination
[12] = S. cerevisiae, FLC:INH combination
[13] = S. cerevisiae, ITR:INH combination
[14] = S. cerevisiae, KET:INH combination
[15] = C. glabrata, FLC:INH combination
[16] = C. glabrata, ITR:INH combination
[17] = C. glabrata, KET:INH combination
[18] = C. albicans, FLC:INH combination
[19] = C. albicans, ITR:INH combination

## O=P(O)(O)C(O)(Cn1ccnc1)P(=O)(O)O [ZOL, zoledronate]
Saccharomyces cerevisiae [1]
  MFC: > 128 mg/L
  MIC: > 128 mg/L
  MIC / MEC: 256 mg/L (≈ 941 µM)
Candida albicans [2]
  MFC: > 128 mg/L
  MIC: 128 mg/L (≈ 470 µM)
  MIC / MEC: 128 mg/L (≈ 470 µM)
[3]; 5FC:ZOL
  FICI: 1.02
[3]; AMB:ZOL
  FICI: 2
[3]; [6]
  FICI: 0.25
  INH FD (MIC-MICc fold decrease): 8
[3]; C. deuterogattii, FLC:INH combination, MIC of the inhibitor in combination with FLC
  INH MICc: 8
[3]; C. deuterogattii, FLC:INH combination, fold decrease of FLC MIC
  FLC FD (MIC-MICc fold decrease): 8
[3]; [7]
  FICI: 0.38
  INH FD (MIC-MICc fold decrease): 8
[3]; C. deuterogattii, ITR:INH combination, MIC of the inhibitor in combination with ITR
  INH MICc: 8
[3]; C. deuterogattii, ITR:INH combination, fold decrease of ITR MIC
  ITR FD (MIC-MICc fold decrease): 4
[3]; [8]
  FICI: 0.31
  INH FD (MIC-MICc fold decrease): 4
[3]; C. deuterogattii, KET:INH combination, MIC of the inhibitor in combination with KET
  INH MICc: 16
[3]; C. deuterogattii, KET:INH combination, fold decrease of KET MIC
  KET FD (MIC-MICc fold decrease): 16
[3]; CAS:ZOL
  FICI: 1.5
[3]; FLC:ZOL
  FICI: 0.25
[3]; ITR:ZOL
  FICI: 0.38
[3]; KET:ZOL
  FICI: 0.31
[3]; VOR:ZOL
  FICI: 0.5
[3]; ZOL with 5FC
  bisphosphonate MICc: 128
[3]; ZOL with AMB
  bisphosphonate MICc: 128
[3]; ZOL with CAS
  bisphosphonate MICc: 64
[3]; ZOL with FLC
  bisphosphonate MICc: 8
[3]; ZOL with ITR
  bisphosphonate MICc: 8
[3]; ZOL with KET
  bisphosphonate MICc: 16
[3]; ZOL with VOR
  bisphosphonate MICc: 32
[3]; with FLC, Cryptococcus deuterogattii
  FICI: 0.25
[3]; with ITR, Cryptococcus deuterogattii
  FICI: 0.38
[3]; with KET, Cryptococcus deuterogattii
  FICI: 0.31
Cryptococcus neoformans; 5FC:ZOL
  FICI: 0.75
Cryptococcus neoformans; AMB:ZOL
  FICI: 2.25
Cryptococcus neoformans; [9]
  FICI: 0.38
  INH FD (MIC-MICc fold decrease): 8
Cryptococcus neoformans; C. neoformans, FLC:INH combination, MIC of the inhibitor in combination with FLC
  INH MICc: 8
Cryptococcus neoformans; C. neoformans, FLC:INH combination, fold decrease of FLC MIC
  FLC FD (MIC-MICc fold decrease): 4
Cryptococcus neoformans; [10]
  FICI: 0.19
  INH FD (MIC-MICc fold decrease): 16
Cryptococcus neoformans; C. neoformans, ITR:INH combination, MIC of the inhibitor in combination with ITR
  INH MICc: 4
Cryptococcus neoformans; C. neoformans, ITR:INH combination, fold decrease of ITR MIC
  ITR FD (MIC-MICc fold decrease): 8
Cryptococcus neoformans; [11]
  FICI: 0.19
  INH FD (MIC-MICc fold decrease): 16
Cryptococcus neoformans; C. neoformans, KET:INH combination, MIC of the inhibitor in combination with KET
  INH MICc: 4
Cryptococcus neoformans; C. neoformans, KET:INH combination, fold decrease of KET MIC
  KET FD (MIC-MICc fold decrease): 8
Cryptococcus neoformans; CAS:ZOL
  FICI: ≥4
Cryptococcus neoformans; FLC:ZOL
  FICI: 0.38
Cryptococcus neoformans; ITR:ZOL
  FICI: 0.19
Cryptococcus neoformans; KET:ZOL
  FICI: 0.19
Cryptococcus neoformans; VOR:ZOL
  FICI: 0.98
Cryptococcus neoformans; ZOL with 5FC
  bisphosphonate MICc: 16
Cryptococcus neoformans; ZOL with AMB
  bisphosphonate MICc: 8
Cryptococcus neoformans; ZOL with CAS
  bisphosphonate MICc: 128
Cryptococcus neoformans; ZOL with FLC
  bisphosphonate MICc: 8
Cryptococcus neoformans; ZOL with ITR
  bisphosphonate MICc: 4
Cryptococcus neoformans; ZOL with KET
  bisphosphonate MICc: 4
Cryptococcus neoformans; ZOL with VOR
  bisphosphonate MICc: 16
Cryptococcus neoformans; with FLC, Cryptococcus neoformans
  FICI: 0.38
Cryptococcus neoformans; with ITR, Cryptococcus neoformans
  FICI: 0.19
Cryptococcus neoformans; with KET, Cryptococcus neoformans
  FICI: 0.19
Candida auris; 5FC:ZOL
  FICI: 1.5
Candida auris; AMB:ZOL
  FICI: 1.13
Candida auris; CAS:ZOL
  FICI: 1.25
Candida auris; FLC:ZOL
  FICI: 0.38
Candida auris; ITR:ZOL
  FICI: 0.63
Candida auris; KET:ZOL
  FICI: 0.5
Candida auris; VOR:ZOL
  FICI: 0.63
Candida auris; ZOL with 5FC
  bisphosphonate MICc: 128
Candida auris; ZOL with AMB
  bisphosphonate MICc: 16
Candida auris; ZOL with CAS
  bisphosphonate MICc: 32
Candida auris; ZOL with FLC
  bisphosphonate MICc: 32
Candida auris; ZOL with ITR
  bisphosphonate MICc: 16
Candida auris; ZOL with KET
  bisphosphonate MICc: 32
Candida auris; ZOL with VOR
  bisphosphonate MICc: 16
Saccharomyces cerevisiae [4]; 5FC:ZOL
  FICI: 1.25
Saccharomyces cerevisiae [4]; AMB:ZOL
  FICI: 2.5
Saccharomyces cerevisiae [4]; CAS:ZOL
  FICI: 1.01
Saccharomyces cerevisiae [4]; FLC:ZOL
  FICI: 0.38
Saccharomyces cerevisiae [4]; ITR:ZOL
  FICI: 0.5
Saccharomyces cerevisiae [4]; KET:ZOL
  FICI: 0.25
Saccharomyces cerevisiae [4]; [12]
  FICI: 0.38
  INH FD (MIC-MICc fold decrease): 8
Saccharomyces cerevisiae [4]; S. cerevisiae, FLC:INH combination, MIC of FLC in combination with the inhibitor
  FLC MICc: 1
Saccharomyces cerevisiae [4]; S. cerevisiae, FLC:INH combination, MIC of the inhibitor in combination with FLC
  INH MICc: 32
Saccharomyces cerevisiae [4]; S. cerevisiae, FLC:INH combination, fold decrease of FLC MIC
  FLC FD (MIC-MICc fold decrease): 4
Saccharomyces cerevisiae [4]; [13]
  FICI: 0.5
  INH FD (MIC-MICc fold decrease): 4
Saccharomyces cerevisiae [4]; S. cerevisiae, ITR:INH combination, MIC of ITR in combination with the inhibitor
  ITR MICc: 0.063
Saccharomyces cerevisiae [4]; S. cerevisiae, ITR:INH combination, MIC of the inhibitor in combination with ITR
  INH MICc: 64
Saccharomyces cerevisiae [4]; S. cerevisiae, ITR:INH combination, fold decrease of ITR MIC
  ITR FD (MIC-MICc fold decrease): 4
Saccharomyces cerevisiae [4]; [14]
  FICI: 0.25
  INH FD (MIC-MICc fold decrease): 8
Saccharomyces cerevisiae [4]; S. cerevisiae, KET:INH combination, MIC of KET in combination with the inhibitor
  KET MICc: 0.25
Saccharomyces cerevisiae [4]; S. cerevisiae, KET:INH combination, MIC of the inhibitor in combination with KET
  INH MICc: 32
Saccharomyces cerevisiae [4]; S. cerevisiae, KET:INH combination, fold decrease of KET MIC
  KET FD (MIC-MICc fold decrease): 8
Saccharomyces cerevisiae [4]; VOR:ZOL
  FICI: 0.75
Saccharomyces cerevisiae [4]; ZOL with 5FC
  bisphosphonate MICc: 64
Saccharomyces cerevisiae [4]; ZOL with AMB
  bisphosphonate MICc: 128
Saccharomyces cerevisiae [4]; ZOL with CAS
  bisphosphonate MICc: 2
Saccharomyces cerevisiae [4]; ZOL with FLC
  bisphosphonate MICc: 32
Saccharomyces cerevisiae [4]; ZOL with ITR
  bisphosphonate MICc: 64
Saccharomyces cerevisiae [4]; ZOL with KET
  bisphosphonate MICc: 32
Saccharomyces cerevisiae [4]; ZOL with VOR
  bisphosphonate MICc: 64
Saccharomyces cerevisiae [4]; with FLC, Saccharomyces cerevisiae
  FICI: 0.38
Saccharomyces cerevisiae [4]; with ITR, Saccharomyces cerevisiae
  FICI: 0.50
Saccharomyces cerevisiae [4]; with KET, Saccharomyces cerevisiae
  FICI: 0.25
Candida glabrata; 5FC:ZOL
  FICI: 0.63
Candida glabrata; AMB:ZOL
  FICI: 0.63
Candida glabrata; [15]
  FICI: 0.09
  INH FD (MIC-MICc fold decrease): 8
Candida glabrata; C. glabrata, FLC:INH combination, MIC of the inhibitor in combination with FLC
  INH MICc: 1
Candida glabrata; C. glabrata, FLC:INH combination, fold decrease of FLC MIC
  FLC FD (MIC-MICc fold decrease): 16
Candida glabrata; [16]
  FICI: 0.16
  INH FD (MIC-MICc fold decrease): 8
Candida glabrata; C. glabrata, ITR:INH combination, MIC of the inhibitor in combination with ITR
  INH MICc: 1
Candida glabrata; C. glabrata, ITR:INH combination, fold decrease of ITR MIC
  ITR FD (MIC-MICc fold decrease): 8
Candida glabrata; [17]
  FICI: 0.31
  INH FD (MIC-MICc fold decrease): 4
Candida glabrata; C. glabrata, KET:INH combination, MIC of the inhibitor in combination with KET
  INH MICc: 2
Candida glabrata; C. glabrata, KET:INH combination, fold decrease of KET MIC
  KET FD (MIC-MICc fold decrease): 4
Candida glabrata; CAS:ZOL
  FICI: 2.05
Candida glabrata; FLC:ZOL
  FICI: 0.09
Candida glabrata; ITR:ZOL
  FICI: 0.16
Candida glabrata; KET:ZOL
  FICI: 0.31
Candida glabrata; VOR:ZOL
  FICI: 0.38
Candida glabrata; ZOL with 5FC
  bisphosphonate MICc: 1
Candida glabrata; ZOL with AMB
  bisphosphonate MICc: 1
Candida glabrata; ZOL with CAS
  bisphosphonate MICc: 1
Candida glabrata; ZOL with FLC
  bisphosphonate MICc: 1
Candida glabrata; ZOL with ITR
  bisphosphonate MICc: 1
Candida glabrata; ZOL with KET
  bisphosphonate MICc: 2
Candida glabrata; ZOL with VOR
  bisphosphonate MICc: 1
Candida glabrata; with FLC, Candida glabrata
  FICI: 0.09
Candida glabrata; with ITR, Candida glabrata
  FICI: 0.16
Candida glabrata; with KET, Candida glabrata
  FICI: 0.31
Candida albicans [5]; 5FC:ZOL
  FICI: 1.13
Candida albicans [5]; AMB:ZOL
  FICI: 1.25
Candida albicans [5]; [18]
  FICI: 0.53
  INH FD (MIC-MICc fold decrease): 32
Candida albicans [5]; C. albicans, FLC:INH combination, MIC of the inhibitor in combination with FLC
  INH MICc: 8
Candida albicans [5]; C. albicans, FLC:INH combination, fold decrease of FLC MIC
  FLC FD (MIC-MICc fold decrease): 2
Candida albicans [5]; [19]
  FICI: 1.13
  INH FD (MIC-MICc fold decrease): 8
Candida albicans [5]; C. albicans, ITR:INH combination, MIC of the inhibitor in combination with ITR
  INH MICc: 32
Candida albicans [5]; C. albicans, ITR:INH combination, fold decrease of ITR MIC
  ITR FD (MIC-MICc fold decrease): 1
